One series relates to HaCaT cells. The experiment in a line: MTT cytotoxicity assay on HaCaT keratinocytes. The settings on record: for 50% cytotoxic concentration (CC50): HaCaT keratinocytes, 20 h exposure, 0.39 to 100 μM; for CC50 obtained by the fitting of the curves: HaCaT, 20 h, Figure 1. Type of series: cell-based, human. As to the method: To evaluate their safety profile, cytotoxicity assays were performed on HaCaT keratinocytes. Cells were exposed for 20 h to peptides at doses ranging from 0.39 to 100 μM.
Figure 1 Dose–response curves for the AMPs against HaCaT cell line and CC50 (reported in μM), HillSlope, and R^2 values were obtained by the fitting of the curves. The viability effect of Hylin-a1, AR-23, and RV-23 was analyzed on HaCaT cells. The cell monolayer was treated with serial dilutions of peptides for 20 h. Untreated cells were used as a positive control, while dimethyl sulfoxide (DMSO) was used as a negative control. HillSlope: The measure of the steepness of the dose–response curve. […] R^2 (coefficient of determination) indicates how well the model fits the data. Ranges from 0 to 1, with 1 representing a perfect fit.
The cytotoxic effect of peptides was examined using 3-(4,5 dimethylthiazol-2-yl)-2,5-diphenyltetrazolium bromide (MTT), as previously described. Cell viability, expressed as a percentage, was calculated in relation to the viability of untreated cells (+). DMSO was used as negative control (−). The human keratinocyte cell line HaCaT (Cell Lines Service, CLS-, Eppelheim, Germany) was used as a cellular model to evaluate the peptides’ cytotoxicity. HaCaT cells were grown in Dulbecco’s Modified Eagle Medium (DMEM) with 4.5 g/L of glucose (Microtech, Naples, Italy) supplemented with an antibiotic solution 100× (Himedia, Naples, Italy) and 10% Fetal Bovine Serum (FBS, Microtech).
A general note: Tetrazolium dyes change colour on reduction, which living cells bring about.

Series [1] relates to E. coli ATCC 25992. The settings on record: for MBC: colonies' growth on agar plates after microdilution, N/D = not detected antibacterial activity; for MIC: microdilution (NCCLS), MH broth, 5 × 10^5 CFU/mL, 37 °C, 20 h, absorbance, 50 to 1.56 μM. As to the method:
(§1) The three peptides were tested for their antibacterial activity. […] As described in the Materials and Methods section, the antibacterial effect of peptides was investigated using a microdilution assay. Each concentration of AMPs was inoculated with bacteria in 96-well plates and incubated at 37 °C for 20 h. After that, MIC values were determined by analyzing absorbance and expressed as a percentage of inhibition. MBC was assessed by observing the colonies’ growth on agar plates, as described elsewhere.
(§2) Each strain was grown in Mueller Hinton Broth (MH Broth), and 5 × 10^5 CFU/mL was used to evaluate antibacterial activity. Clinical carbapenem-resistant K. pneumoniae and E. coli isolates were collected at the AOU of Virology and Microbiology of the University of Campania “Luigi Vanvitelli”.
(§3) The antimicrobial activity of Hylin-a1, AR-23, and RV-23 was investigated using a microdilution assay as reported by the National Committee on Clinical Laboratory Standards (NCCLS) guidelines against a broad spectrum of Gram-negative bacteria. […] In 96-well, the standardized bacterial inoculum (5 × 10^5 colony forming units, CFU/mL) was inoculated together with AMPs and incubated at 37 °C for 20 h. After the time of incubation, optical density (OD) was measured at TECAN, and data were expressed as a percentage of inhibition. In addition to assessing the MIC values, the bactericidal effect was also studied as reported elsewhere.

In series [2] the test system is K. pneumoniae ATCC 10031. The settings on record: for MBC: colonies' growth on agar plates after microdilution, N/D = not detected antibacterial activity; for MIC: microdilution (NCCLS), MH broth, 5 × 10^5 CFU/mL, 37 °C, 20 h, absorbance, 50 to 1.56 μM. The method, then:
as §1, §2, §3
On the technique in general: In broth dilution the organism is exposed to a series of concentrations in liquid medium.

The subject of another series is E. coli 1441. The settings on record: carbapenemase KPC (class A), rectal swab, N/D = no antibacterial activity detected; for MIC: microdilution, 37 °C, 20 h. As to the method: as §2, §3
The test system of a further series is E. coli 2267. The settings on record: carbapenemase NDM (class B), rectal swab, N/D = no antibacterial activity detected; for MIC: microdilution, 37 °C, 20 h. As to the method: as §2, §3
For a further series, the system named is E. coli 716. The settings on record: carbapenemases IMP1, VIM, NDM (class B), urine, N/D = no antibacterial activity detected; for MIC: microdilution, 37 °C, 20 h. The method, then: as §2, §3
In a further series the test system is K. pneumoniae 1745. The conditions noted are these: carbapenemase KPC (class A), ulcer, N/D = no antibacterial activity detected; for MIC: microdilution, 37 °C, 20 h. The method, then:
as §2, §3

The subject of another series is K. pneumoniae 1746. The conditions noted are these: carbapenemase VIM (class B), rectal swab; microdilution, 37 °C, 20 h; N/D = no antibacterial activity detected. As to the method: as §2, §3
Series [3] concerns E. coli ATCC 25992. Put plainly: Time-kill assay. Type of series: cell-based, Escherichia coli. As to the method: This in vitro method allows for assessing the kinetics of bacterial killing by peptides over time. […] Specifically, at each time point, 50 μL aliquots of the bacterial–peptide mixtures were collected and plated on agar (see Materials and Methods for further details). Following incubation, colony-forming units (CFUs) were counted and the killing rate of each peptide concentration was calculated (Figure 2).
Figure 2 Evaluation of the kinetic-killing effect of Hylin-a1, AR-23, and RV-23 against K. pneumoniae and E. coli. […] Untreated bacteria was used as control negative (CTR- in black).
Using the same conditions as the MIC assay, a time–kill test was performed to monitor bacterial growth over time. […] Finally, bacterial colonies were counted, and the CFU/mL was calculated.

The subject of series [4] is K. pneumoniae ATCC 10031. Put plainly: Biofilm initial cell attachment assay. The settings on record: 2 h; for concentration of total reduction in biofilm attachment (antibiofilm MIC): initial cell attachment, 37 °C, peptides 50-1.56 μM, absorbance 570 nm. The format is cell-based, Klebsiella pneumoniae. The method, then: (§4) We also investigated the ability of peptides to interfere with biofilm using three different assays (refer to the Section 4) against K. pneumonia and E. coli.
(§5) Figure 3 The effect of Hylin-a1, AR-23, and RV-23 on the initial cell attachment of biofilm formation. […] Statistical analysis was performed by One-way ANOVA followed by Dunnett’s multiple comparisons test.
(§6) The anti-biofilm activity of peptides was evaluated against E. coli and K. pneumoniae ATCC strains. Bacterial cultures were grown overnight, then diluted to an OD600 of 0.1 in MH broth supplemented with 1% (v/v) glucose. A 100 μL aliquot of the bacterial suspension was combined with an equal volume of peptides at non-cytotoxic concentrations in a 96-well plate and incubated at 37 °C for 2 h. Following incubation, non-adherent planktonic cells were removed by washing with phosphate-buffered saline (PBS, Microtech), and adherent cells were incubated with MTT solution for 3 h at 37 °C. Additionally, adherent cells were collected, resuspended in PBS, and plated on agar for viable cell counting. Serial dilutions were performed for each peptide, and CFU/mL were determined after 20 h of incubation at 37 °C (Figure S2). Absorbance was measured at 570 nm to evaluate adhesion percentage.

Series [5] deals with E. coli ATCC 25992. Put plainly: Biofilm initial cell attachment assay. The format is cell-based, Escherichia coli. The conditions noted are these: 2 h; for concentration of total reduction in biofilm attachment (antibiofilm MIC): initial cell attachment, 37 °C, peptides 50-1.56 μM, absorbance 570 nm. As to the method: as §4, §5, §6
The subject of another series is E. coli. The experiment in a line: Checkerboard assay with meropenem. The settings on record: for MIC of peptide in combination with meropenem: checkerboard, 20 h, OD600.

Where no end group is shown, it is not given here. Bounds are passed on as bounds.

The results in this text go back to article PMC12024264, “Frog Skin Peptides Hylin-a1, AR-23, and RV-23: Promising Tools Against Carbapenem-Resistant Escherichia coli and Klebsiella pneumoniae Infections” (Antibiotics, 2025).

What is called MBC is the lowest tested concentration that kills the bacteria rather than only halting them. Broadly, the MIC is the lowest concentration that inhibits growth of the organism. A low value points to a more susceptible organism.

For the substance RIGVLLARLPKLFSLFKLMGKKV-NH2 [RV-23], the “50% cytotoxic concentration (CC50)” value with HaCaT cells is 100 µM. Also, in the series with HaCaT cells, the “CC50 obtained by the fitting of the curves” value is 101.8 µM. Besides, the MBC in the series with E. coli ATCC 25992 [1] stood at 12.5 µM; in the series with K. pneumoniae ATCC 10031 [2] it was 12.5 µM; with E. coli 1441, 12.5 µM; against E. coli 2267 it was 12.5 µM; in the series on E. coli 716, 25 µM; with K. pneumoniae 1745 it was 25 µM. Further, the MIC in the series on E. coli ATCC 25992 [1] was determined as 12.5 µM; against K. pneumoniae ATCC 10031 [2], 6.25 µM; with E. coli 1441, 6.25 µM; in the series on E. coli 2267, 12.5 µM; against E. coli 716, 25 µM; with K. pneumoniae 1745 it was 12.5 µM. The same substance gave an MIC against K. pneumoniae 1746 of 12.5 µM. Further, the “time to significant reduction in bacterial viability / bactericidal effect” value in the series with E. coli ATCC 25992 [3] is given as not above 2 h. Further, the “concentration of total reduction in biofilm attachment (antibiofilm MIC)” value in the series on K. pneumoniae ATCC 10031 [4] was 50 µM; in the series with E. coli ATCC 25992 [5], 12.5 µM. Also, the “MIC of peptide in combination with meropenem” value with E. coli amounted to 6.25 µM.

Consider IFGAILPLALGALKNLIK-NH2 [Hylin-a1], for which the “50% cytotoxic concentration (CC50)” value in the series with HaCaT cells worked out at 100 µM. For the same substance, the “CC50 obtained by the fitting of the curves” value with HaCaT cells turned out to be 102.6 µM. Moreover, the MBC is 25 µM against E. coli ATCC 25992 [1], 6.25 µM in the series on K. pneumoniae ATCC 10031 [2], 50 µM in the series with E. coli 2267 and 50 µM in the series on K. pneumoniae 1745. The MIC turned out to be 25 µM against E. coli ATCC 25992 [1]; 6.25 µM in the series with K. pneumoniae ATCC 10031 [2]; 50 µM in the series on E. coli 1441; 25 µM in the series with E. coli 2267; 25 µM in the series with E. coli 716; 50 µM in the series on K. pneumoniae 1745. The same substance returned an MIC against K. pneumoniae 1746 of 25 µM. In the series with E. coli ATCC 25992 [3], the “bacterial killing in time-kill assay” value is “kills bacteria”. Also, the “reduction of biofilm (initial attachment)” value with K. pneumoniae ATCC 10031 [4] (at 50 μM) and in the series on E. coli ATCC 25992 [5] (at 50 μM) was 80–100% each time. The “concentration of total reduction in biofilm attachment (antibiofilm MIC)” value in the series with K. pneumoniae ATCC 10031 [4] and in the series on E. coli ATCC 25992 [5] was 50 µM throughout. For the same substance, the “MIC of peptide in combination with meropenem” value with E. coli was 3.125 µM. Also, in the series on E. coli (interpretation of FICI by Table 4), the “combinatory effect of peptide and meropenem” value was “partial synergism”.
